Results: US20250171418A1, “PARP1 INHIBITORS AND USES THEREOF” (XinThera, Inc., priority 2022, published 2025)

Tests used:
DLD-1 BRCA2(−/−) = assay: Cell growth inhibition assay (CellTiter-Glo cell viability); type: cell-based; settings: DLD-1 BRCA2(−/−) cells, 7 days, CellTiter Glo 2.0
Protocol: (§1) Cell proliferation was measured through the cell viability assay using DLD-1 BRCA2(−/−) and parental isogenic pair and MDA-MB-436 (mutated BRCA1) cell lines. The CellTiter-Glo (CTG) based cell viability assay is designed to determine the number of viable cells in the culture because of compound effect, by quantifying ATP, which indicates the presence of metabolically active cells.
(§2) DLD-1 BRCA2(−/−) and parental isogenic pair were cultured in RPMI 1640 supplemented with 10% fetal bovine serum (FBS), and MDA-MB-436 cells were cultured in DMEM supplemented with 10% FBS. Both were cultured at 37° C. with […]. Invention compounds were distributed to the 384 well plate (Corning, 3764) using Echo acoustic liquid handler to form a 1:3 serially diluted final concentration with top dose of 10 or 30 μM.

[1] = test system: MDA-MB-436 (mutated BRCA1) cell lines; assay: as above; type: cell-based; settings: MDA-MB-436 cells, 7 days, CellTiter Glo 2.0
Protocol: as §1, §2

PARP1 = PARP1 (Homo sapiens, UniProt P09874); assay: biochemical
Chain of PARP1 (P09874 whole entry): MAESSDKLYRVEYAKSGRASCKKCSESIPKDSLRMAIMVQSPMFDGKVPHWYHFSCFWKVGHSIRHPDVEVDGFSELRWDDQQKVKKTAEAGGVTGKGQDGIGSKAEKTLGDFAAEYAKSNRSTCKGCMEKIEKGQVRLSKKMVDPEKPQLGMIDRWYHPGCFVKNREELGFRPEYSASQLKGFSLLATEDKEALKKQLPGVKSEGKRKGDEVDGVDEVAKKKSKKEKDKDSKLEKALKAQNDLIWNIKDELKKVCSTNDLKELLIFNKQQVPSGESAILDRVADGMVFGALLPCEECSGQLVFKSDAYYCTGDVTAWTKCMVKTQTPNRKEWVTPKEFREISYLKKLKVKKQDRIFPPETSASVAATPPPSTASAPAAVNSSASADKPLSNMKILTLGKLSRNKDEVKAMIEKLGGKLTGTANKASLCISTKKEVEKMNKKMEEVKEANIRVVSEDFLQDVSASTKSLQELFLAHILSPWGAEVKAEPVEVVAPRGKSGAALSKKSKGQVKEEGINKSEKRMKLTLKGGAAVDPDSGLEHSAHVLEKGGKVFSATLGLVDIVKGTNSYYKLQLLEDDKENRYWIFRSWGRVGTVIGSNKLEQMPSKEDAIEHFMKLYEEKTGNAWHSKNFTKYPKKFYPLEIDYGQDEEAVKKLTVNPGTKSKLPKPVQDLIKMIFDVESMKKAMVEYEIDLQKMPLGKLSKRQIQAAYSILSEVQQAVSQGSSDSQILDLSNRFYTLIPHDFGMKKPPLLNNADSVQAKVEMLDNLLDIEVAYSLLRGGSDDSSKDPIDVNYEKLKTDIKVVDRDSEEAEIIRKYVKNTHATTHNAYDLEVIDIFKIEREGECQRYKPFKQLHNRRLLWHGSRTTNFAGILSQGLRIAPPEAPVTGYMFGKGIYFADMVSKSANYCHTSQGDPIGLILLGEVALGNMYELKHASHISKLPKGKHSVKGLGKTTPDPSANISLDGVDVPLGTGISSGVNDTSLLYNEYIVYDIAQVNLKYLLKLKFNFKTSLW
Protocol: The assay was performed utilizing the following method:
Compounds were dissolved in DMSO an Echo550 liquid handler was utilized to make serial dilations in the desired concentration range in Optiplate-384F plates. 100% DMSO was used for the high (with protein) and low (without protein) control samples. 20 nL of compound or DMSO alone was added to individual assay plate wells.
PARP1 and PARP2 protein were expressed, purified, and diluted in assay buffer containing 50 mM Tris pH 8.0, 0.001% Triton X-100, 10 mM MgCl2, 150 mM NaCl to a final concentration of 20 nM. The PARPi-FL was then added at a final concentration of 3 nM.
The assay plate was centrifuged at 1000 rpm for 1 min and incubated for 4 h at room temperature.
The fluorescent polarization was read using an Envision plate reader using the following settings: • Excitation filter—FITC FP 480-Ex Slot 3 • Emission filter—FITC FP P-pol 535-Em Slot 4 • 2nd Emission filter—FITC FP S-pol 535-Em Slot 3 • Mirror module—FITC FP Dual Enh-Slot 1
XLFit (equation 201) is used to calculate a reported IC50 for each compound.

Compound	EC50 (DLD-1 BRCA2(−/−); Homo sapiens, DLD-1, 168 h) [µM]	EC50 ([1]; Homo sapiens, 168 h) [µM]	IC50 (PARP1) [µM]	EC50 (DLD-1 BRCA2(−/−)) [µM]	EC50 [1] [µM]
CNC(=O)c1ccc(N2CCN(Cc3ccc4nc(C)c(=O)[nH]c4c3F)[C@H]3C[C@H]32)c(F)n1 (relative stereo) [Example 2, rel-6-fluoro-5-[(1R,6S)-5-[(5-fluoro-2-methyl-3-oxo-4H-quinoxalin-6-yl)methyl]-2,5-diazabicyclo[4.1.0]heptan-2-yl]-N-methylpyridine-2-carboxamide]	0.0035	0.007	–	–	–
Cc1nc2ccc(CN3CCN(c4ccc(C(=O)NC5CC5)nc4)[C@H]4C[C@H]43)c(F)c2[nH]c1=O (single isomer, unassigned) [Example 6]	0.084	0.058	0.014	–	–
Cc1nc2ccc(CN3CCN(c4ccc(C(=O)NC5CC5)nc4F)[C@H]4C[C@H]43)c(F)c2[nH]c1=O (single isomer, unassigned) [Example 9]	0.019	0.0072	–	–	–
CCc1nc2ccc(C(C)N3CCN(c4ccc(C(=O)NC)nc4)CC3)c(F)c2[nH]c1=O (single isomer, unassigned) [Example 15]	0.028	0.015	–	–	–
CCc1nc2ccc(C(C)N3CCN(c4ccc(C(=O)NC)nc4)CC3)c(F)c2[nH]c1=O (single isomer, unassigned) [Example 16]	–	–	–	0.03	0.015
CCc1nc2ccc([C@H](C)N3CCN(c4ccc(C(=O)NC)nc4F)CC3)c(F)c2[nH]c1=O (single isomer, unassigned) [Example 17]	0.0077	0.0068	0.024	–	–
CCc1nc2ccc([C@@H](C)N3CCN(c4ccc(C(=O)NC)nc4F)CC3)c(F)c2[nH]c1=O (single isomer, unassigned) [Example 18]	0.0087	0.0044	0.015	–	–
Cc1nc2ccc(CN3CCN(c4ccc(C(=O)N[C@H]5CC5(F)F)nc4F)CC3)c(F)c2[nH]c1=O (single isomer, unassigned) [Example 20]	0.0057	0.0031	–	–	–
CNC(=O)c1ccc(N2CCN([C@@H](C)c3ccc4nc(C)c(=O)[nH]c4c3F)CC2)c(F)n1 (single isomer, unassigned) [Example 22]	0.025	0.014	–	–	–
CNC(=O)c1ccc(N2CCN([C@H](C)c3ccc4nc(C)c(=O)[nH]c4c3F)CC2)c(F)n1 (single isomer, unassigned) [Example 23]	0.018	0.018	–	–	–
Cc1nc2ccc([C@H](C)N3CCN(c4ccc(C(=O)NC5CC5)nc4F)CC3)c(F)c2[nH]c1=O (single isomer, unassigned) [Example 24]	0.02	0.0079	0.024	–	–
Cc1nc2ccc([C@@H](C)N3CCN(c4ccc(C(=O)NC5CC5)nc4F)CC3)c(F)c2[nH]c1=O (single isomer, unassigned) [Example 25]	0.035	0.012	0.024	–	–
Cc1nc2ccc([C@H](C)N3CCN(c4ccc(C(=O)NC5CC5)nc4)CC3)c(F)c2[nH]c1=O (single isomer, unassigned) [Example 28]	0.97	0.021	0.07	–	–
Cc1nc2ccc([C@@H](C)N3CCN(c4ccc(C(=O)NC5CC5)nc4)CC3)c(F)c2[nH]c1=O (single isomer, unassigned) [Example 29]	0.045	0.084	0.09	–	–
CNC(=O)c1ccc(N2CCN(Cc3ccc4nc(C)c(=O)[nH]c4c3F)C[C@H]2C)c(F)n1 [Example 3]	0.017	0.035	–	–	–
COCCNC(=O)c1ccc(N2CCN(Cc3ccc4nc(C)c(=O)[nH]c4c3F)CC2)c(F)n1 [Example 10]	0.014	0.0081	–	–	–
CCc1nc2ccc(CN3CCN(c4ccc(C(=O)NCCOC)nc4F)CC3)c(F)c2[nH]c1=O [Example 12]	0.0071	0.0053	–	–	–
Cc1nc2ccc(CN3CCN(c4ccc(C(=O)NC5CC(F)(F)C5)nc4F)CC3)c(F)c2[nH]c1=O [Example 13]	0.0044	0.005	–	–	–
Cc1nc2ccc(CN3CCC(c4ccc(C(=O)NC5CC5)nc4F)CC3)c(F)c2[nH]c1=O [Example 27]	0.027	0.011	–	–	–
